Experimental data: publication PMC8201677, “Calycosin-loaded nanoliposomes as potential nanoplatforms for treatment of diabetic nephropathy through regulation of mitochondrial respiratory function” (Journal of Nanobiotechnology, 2021)

Columns and labels:
[1] = In vitro drug release in dialysis media (simulated gastric, intestinal and physiological fluid); type: physicochemical
Protocol: The EE and DL of the prepared calycosin-loaded nanoliposomes were determined by the dialysis method described previously. Briefly, 700 μL of the prepared calycosin-loaded nanoliposomes solution was added into a dialysis bag (cutoff of 8000), followed by putting into 20 mL of dialysis medium (PBS, pH 7.4). The samples were then shacked (10 h), and centrifuged (3000 rpm, 2 min) to determine the free calycosin concentration in the supernatant. Also, 500 µL of the calycosin-loaded nanoliposomes were added by 1500 μL of methanol, vortexed ([…]), sonicated (5 min), centrifuged (3000 rpm, 2 min) to calculate the total calycosin concentration (C0). 20 mL of the prepared calycosin-loaded nanoliposomes powder (V0) was weighted to calculate the solid powder mass (W0). 25 µl of the sample was injected into a HPLC system containing Phenomenex ODS analytical column (150 mm × 4.6 mm, 5 μm) with a guard column (30 mm × 10 mm, 3 μm) at 40 °C. The mobile phase was a mixture of methanol: double distilled water as follows:0.05 M KH2PO4 = 40:60:5, pH 4.0, with a flow rate of 1.0 ml/min [37]. The simulated gastric fluid was 0.1 mol/L HCl (100 mM, pH 1.2) supplemented with 0.5% Tween-80, the simulated intestinal fluid was PBS buffer (25 mM, pH 6.9) containing 0.5% Tween-80, and the simulated physiological buffer was PBS (150 mM, pH 7.4) containing 0.5% Tween-80. The cumulative drug release was then determined using the following equation [35]: Cumulative release rate%=[V1×(C1⋯+Ci1)+V2×Ci]/Vo×Co×100 where, V1 is the sampling amount, V2 is the volume of the dialysis medium, C1–Ci is the concentration of calycosin at each time point, and V0 and C0 are the volume and concentration of calycosin-loaded nanoliposomes added to the dialysis bag. Stability of calycosin-loaded nanoliposomes was explored for about two months at 37 °C by using particle size and encapsulation efficiency of the reconstituted nanoliposome.

[2] = Dissolution study in PBS pH 7.4; type: physicochemical
Protocol: The dissolution studies were performed based on the previous study. Briefly, the dissolution medium (pH 7.4, PBS, 900 ml) under stirring (100 rpm) was added by calycosin-loaded nanoliposomes which is equivalent to 50 mg of drug and at different time intervals, 15 mL samples were removed, replaced, filtrated ([…]), and dissolved in mixed solvent (methanol: distilled water = 5.5:3.5, v/v). Finally, 25 µl of the sample was injected into a HPLC system. The rest of the setup was similar to the above-mentioned explanations.

[3] = Pharmacokinetics in rats after oral administration; type: in vivo; conditions: male, Sprague-Dawley, rat, single dose 30 mg/kg calycosin, plasma
Protocol: […] male Sprague–Dawley rats were randomly divided into three groups ([…]) as control, treated with calycosin, and treated with calycosin-loaded nanoliposomes (dissolved in 1% ethanol). The doses of calycoin groups were 30 mg/kg for oral administration. After the rats were intragastrically administered with free or Nano-formulated calycosin, the 0.5 mL blood was taken from the fundus venous plexus of each rat at different time intervals. The blood samples were then centrifuged (4000 rpm, 10 min), and the plasma was removed and to stored − 80 °C. The content of the drug in the plasma sample was then calculated by the established LC-MS/MS method based on the previous report.

[4] = test system: mitochondria in kidney cells of diabetic rats; assay: MTT assay of mitochondrial viability in diabetic rats; type: in vivo, Sprague–Dawley rats; conditions: streptozotocin diabetic rats, treated 4 weeks
Protocol: (§1) Diabetes was induced in mice by injecting streptozotocin purchased from Sigma (USA). Streptozotocin was dissolved in a citrate buffer (pH 6.5, 0.1 M) and injected at a dose of 65 mg/kg intraperitoneally. Blood glucose was measured before the test and one week after streptozotocin injection, and mice with blood glucose above […] were considered diabetic. The calycosin or calycosin-loaded nanoliposomes were dissolved in PBS until it was ready to be injected, and the mice received […] of calycosin-loaded nanoliposomes for 4 weeks after becoming diabetic. Vitamin E (100 mg/kg) was also used as a positive control group. Animals were randomly divided in 5 groups which each group consisted of 6 male mice. […] Protein concentration was measured as standard using bovine serum albumin (BSA). […] 100 µl of mitochondrial supernatants were mixed by MTT stock solution (5 mg mL^−1) for 4 h, followed by removing the supernatants, addition of 150 μL DMSO for 5 min, and reading the absorbance of the samples at 570 nm using a microplate reader (BIO-RAD microplate reader-550).

[5] = test system: mitochondria in kidney cells of diabetic rats; assay: ROS measurement by DCFH-DA assay in diabetic rats; type: in vivo, Sprague–Dawley rats; conditions: streptozotocin diabetic rats, treated 4 weeks
Protocol: as §1, with “Then,” for “100 µl of mitochondrial supernatants were mixed by MTT stock solution (5 mg mL^−1) for 4 h, followed by removing”, “fluorescence intensity” for “supernatants, addition of 150 μL DMSO for 5 min, and reading the absorbance”, “samples was read” for “samples”, “λex/λem of 485 nm/530” for “570”, “spectrofluorometer (CLARIOstar, Offenburg, Germany).” for “microplate reader (BIO-RAD microplate reader-550).”

[6] = test system: mitochondria in kidney cells of diabetic rats; assay: Lipid peroxidation (MDA) by TBARS analysis in diabetic rats; type: in vivo, Sprague–Dawley rats; conditions: streptozotocin diabetic rats, treated 4 weeks

time of (almost) complete / 100% release ([1]; simulated gastric medium pH 1.2): ~20 h
cumulative release ([1]; simulated gastric medium pH 1.2, 1 h): about 32%
time of (almost) complete / 100% release ([1]; simulated intestinal fluid pH 6.9): ~100 h
cumulative release ([1]; simulated intestinal fluid pH 6.9, 1 h): about 32%
cumulative release ([1]; simulated intestinal fluid pH 6.9, 20 h): 90%
time of (almost) complete / 100% release ([1]; simulated physiological fluid pH 7.4): ~120 h
cumulative release ([1]; simulated physiological fluid pH 7.4, 1 h): about 7%
cumulative release ([1]; simulated physiological fluid pH 7.4, 20 h): 55%
dissolution rate [2]: low
AUC(0-inf) [3]: 421 ± 73.3 ng·h/mL
AUC(0-t) [3]: 409 ± 67.3 ng·h/mL
Cmax [3]: 298 ± 35.8 ng/mL
Tmax [3]: 0.19 ± 0.017 h
half-life [3]: 6.98 ± 0.96 h
MRT last ([3]; read-out: MRT0−t): 8.68 ± 1.27 h
Structure (SMILES): COc1ccc(-c2coc3cc(O)ccc3c2=O)cc1O [calycosin]
mitochondrial viability (MTT) in comparison with diabetic rats [4]: significant recovery of mitochondrial viability
generation of ROS (DCF fluorescence intensity) [5]: potentially reduced the generation of ROS
MDA level (lipid peroxidation) [6]: remarkable decrease in lipid peroxidation
